Converted amounts (≈) assume the structure as drawn. Counter-ions that a name gives are not always drawn. Like-named read-outs stand apart in the source and are kept apart here.
Key:
Assay in all cases: Bacterial growth minimal inhibitory concentration (microdilution, cation-adjusted Mueller-Hinton Broth)
Assay type in all cases: cell-based
P. aeruginosa ATCC27853 = conditions: for MIC: Pseudomonas aeruginosa
Description: (§1) Minimal Inhibitory Concentrations (MICs; mg/L) were determined in cation-adjusted Mueller-Hinton Broth by a microdilution method following the description given in “Methods for Dilution Antimicrobial Susceptibility Tests for Bacteria that Grow Aerobically”, Approved standard, 7th ed., a Clinical and Laboratory Standards Institute (CLSI) Document M7-A7, Wayne, Pa., USA (2006).
(§2) All Example compounds were tested against several Gram-positive and Gram-negative bacteria. […] K. pneumoniae A-651 is a multiply-resistant strain (in particular quinolone-resistant), while E. coli ATCC25922 and P. aeruginosa ATCC27853 are quinolone-sensitive strains.

E. coli ATCC25922 = conditions: for MIC: Escherichia coli
Description: as §1, §2

K. pneumoniae A-651 = conditions: for MIC: Klebsiella pneumoniae
Description: as §1, §2

[1] = ATCC27853, quinolone-sensitive strain, read-out: MIC for P. aeruginosa ATCC27853
[2] = ATCC25922, quinolone-sensitive strain, read-out: MIC for E. coli ATCC25922
[3] = A651, multiply-resistant strain (in particular quinolone-resistant), read-out: MIC for K. Pneumoniae A-651

SMILES	MIC (P. aeruginosa ATCC27853; [1]) [µg/mL]	MIC (E. coli ATCC25922; [2]) [µg/mL]	MIC (K. pneumoniae A-651; [3]) [µg/mL]	further results
C[C@@](CCN1Cc2cc(C#CC#C[C@@H]3C[C@H]3CO)cn2C1=O)(C(=O)NO)S(C)(=O)=O [Example 27, (R)-N-hydroxy-4-(6-(((1R,2R)-2-(hydroxymethyl)cyclopropyl)buta-1,3-diyn-1-yl)-3-oxo-1H-pyrrolo[1,2-c]imidazol-2(3H)-yl)-2-methyl-2-(methylsulfonyl)butanamide]	0.5 (≈ 1.15 µM)	≤ 0.063	0.25 (≈ 0.577 µM)	–
COc1cccc(-c2cc3n(c2)C(=O)N(CC[C@](C)(C(=O)NO)S(C)(=O)=O)C3)c1F [Example 28, (R)-4-(6-(2-fluoro-3-methoxyphenyl)-3-oxo-1H-pyrrolo[1,2-c]imidazol-2(3H)-yl)-N-hydroxy-2-methyl-2-(methylsulfonyl)butanamide]	1 (≈ 2.28 µM)	≤ 0.063	0.25 (≈ 0.569 µM)	–
C[C@@](CCN1Cc2cc(/C=C/c3ccc(CO)cc3)cn2C1=O)(C(=O)NO)S(C)(=O)=O [Example 29, (R)-(E)-N-hydroxy-4-(6-(4-(hydroxymethyl)styryl)-3-oxo-1H-pyrrolo[1,2-c]imidazol-2(3H)-yl)-2-methyl-2-(methylsulfonyl)butanamide]	2 (≈ 4.47 µM)	0.25 (≈ 0.559 µM)	0.5 (≈ 1.12 µM)	–
C[C@@](CCN1Cc2cc(C#CC#CC34CC(CO)(C3)C4)cn2C1=O)(C(=O)NO)S(C)(=O)=O [Example 30, (R)-N-hydroxy-4-(6-(4-(3-(hydroxymethyl)bicyclo[1.1.1]pentan-1-yl)buta-1,3-diyn-1-yl)-3-oxo-1H-pyrrolo[1,2-c]imidazol-2(3H)-yl)-2-methyl-2-(methylsulfonyl)butanamide]	0.5 (≈ 1.09 µM)	0.125 (≈ 0.272 µM)	0.25 (≈ 0.544 µM)	–
CC(C)(N)C#CC#Cc1cc2n(c1)C(=O)N(CC[C@](C)(C(=O)NO)S(C)(=O)=O)C2 [Example 31, (R)-4-(6-(5-amino-5-methylhexa-1,3-diyn-1-yl)-3-oxo-1H-pyrrolo[1,2-c]imidazol-2(3H)-yl)-N-hydroxy-2-methyl-2-(methylsulfonyl)butanamide]	1 (≈ 2.38 µM)	1 (≈ 2.38 µM)	1 (≈ 2.38 µM)	–
C[C@@](CCN1Cc2cc(C#Cc3ccc(COC(N)=O)cc3)cn2C1=O)(C(=O)NO)S(C)(=O)=O [Example 32, (R)-4-((2-(4-(hydroxyamino)-3-methyl-3-(methylsulfonyl)-4-oxobutyl)-3-oxo-2,3-dihydro-1H-pyrrolo[1,2-c]imidazol-6-yl)ethynyl)benzyl carbamate]	0.5 (≈ 1.02 µM)	≤ 0.063	0.25 (≈ 0.512 µM)	–
C[C@@](CCN1Cc2cc(C#CC#C[C@@H]3C[C@@H](O)[C@@H](O)C3)cn2C1=O)(C(=O)NO)S(C)(=O)=O [Example 33, (R)-4-(6-(((1S,3R,4S)-3,4-dihydroxycyclopentyl)buta-1,3-diyn-1-yl)-3-oxo-1H-pyrrolo[1,2-c]imidazol-2(3H)-yl)-N-hydroxy-2-methyl-2-(methylsulfonyl)butanamide]	–	–	–	MIC for P. aeruginosa ATCC27853 (P. aeruginosa ATCC27853; quinolone-sensitive strain): 1 µg/mL; MIC for E. coli ATCC25922 (E. coli ATCC25922; quinolone-sensitive strain): 0.5 µg/mL; MIC for K. Pneumoniae A-651 (K. pneumoniae A-651; multiply-resistant strain (in particular quinolone-resistant)): 0.5 µg/mL
C[C@@](CCN1Cc2cc(C#Cc3ccc(C4(COC(N)=O)CC4)cc3)cn2C1=O)(C(=O)NO)S(C)(=O)=O [Example 34, (R)-(1-(4-((2-(4-(hydroxyamino)-3-methyl-3-(methylsulfonyl)-4-oxobutyl)-3-oxo-2,3-dihydro-1H-pyrrolo[1,2-c]imidazol-6-yl)ethynyl)phenyl)cyclopropyl)methyl carbamate]	16 (≈ 30.3 µM)	0.125 (≈ 0.236 µM)	1 (≈ 1.89 µM)	–
C[C@@](CCN1Cc2cc(C#CC#CC3(COC(N)=O)CC3)cn2C1=O)(C(=O)NO)S(C)(=O)=O [Example 35, (R)-(1-((2-(4-(hydroxyamino)-3-methyl-3-(methylsulfonyl)-4-oxobutyl)-3-oxo-2,3-dihydro-1H-pyrrolo[1,2-c]imidazol-6-yl)buta-1,3-diyn-1-yl)cyclopropyl)methyl carbamate]	2 (≈ 4.2 µM)	0.25 (≈ 0.525 µM)	0.5 (≈ 1.05 µM)	–
C[C@@]1(C#CC#Cc2cc3n(c2)C(=O)N(CC[C@](C)(C(=O)NO)S(C)(=O)=O)C3)C[C@H]1CO [Example 36, (R)-N-hydroxy-4-(6-(((1R,2R)-2-(hydroxymethyl)-1-methylcyclopropyl)buta-1,3-diyn-1-yl)-3-oxo-1H-pyrrolo[1,2-c]imidazol-2(3H)-yl)-2-methyl-2-(methylsulfonyl)butanamide]	0.5 (≈ 1.12 µM)	0.125 (≈ 0.279 µM)	0.25 (≈ 0.559 µM)	–
C[C@@](CCN1Cc2cc(C#CC#CC3(N)CC3)cn2C1=O)(C(=O)NO)S(C)(=O)=O.Cl [Example 38, (R)-4-(6-((1-aminocyclopropyl)buta-1,3-diyn-1-yl)-3-oxo-1H-pyrrolo[1,2-c]imidazol-2(3H)-yl)-N-hydroxy-2-methyl-2-(methylsulfonyl)butanamide hydrochloride]	1	0.25	0.25	–
C[C@@](CCN1Cc2cc(C#CC#CC3(N)COC3)cn2C1=O)(C(=O)NO)S(C)(=O)=O [Example 39, (R)-4-(6-((3-aminooxetan-3-yl)buta-1,3-diyn-1-yl)-3-oxo-1H-pyrrolo[1,2-c]imidazol-2(3H)-yl)-N-hydroxy-2-methyl-2-(methylsulfonyl)butanamide hydrochloride]	–	–	–	MIC (P. aeruginosa ATCC27853; ATCC27853, read-out: MIC for P. aeruginosa ATCC27853): 4 µg/mL; MIC (E. coli ATCC25922; ATCC25922, read-out: MIC for E. coli ATCC25922): 2 µg/mL; MIC (K. pneumoniae A-651; A651, read-out: MIC for K. Pneumoniae A-651): 4 µg/mL
C[C@@](CCN1Cc2cc(C#Cc3ccc(C4(CO)CCC4)cc3)cn2C1=O)(C(=O)NO)S(C)(=O)=O [Example 40, (R)-N-hydroxy-4-(6-((4-(1-(hydroxymethyl)cyclobutyl)phenyl)ethynyl)-3-oxo-1H-pyrrolo[1,2-c]imidazol-2(3H)-yl)-2-methyl-2-(methylsulfonyl)butanamide]	1 (≈ 2 µM)	≤ 0.063	0.25 (≈ 0.5 µM)	–
C[C@@](CCN1Cc2cc(-c3ccc(OCCO)cc3F)cn2C1=O)(C(=O)NO)S(C)(=O)=O [Example 41, (R)-4-(6-(2-fluoro-4-(2-hydroxyethoxy)phenyl)-3-oxo-1H-pyrrolo[1,2-c]imidazol-2(3H)-yl)-N-hydroxy-2-methyl-2-(methylsulfonyl)butanamide]	4 (≈ 8.52 µM)	1 (≈ 2.13 µM)	2 (≈ 4.26 µM)	–
C[C@@](CCN1Cc2cc(C#CC#CC3[C@@H](CO)[C@H]3CO)cn2C1=O)(C(=O)NO)S(C)(=O)=O (stereo partly drawn) [Example 42, (R)-4-(6-(((2R,3S)-2,3-bis(hydroxymethyl)cyclopropyl)buta-1,3-diyn-1-yl)-3-oxo-1H-pyrrolo[1,2-c]imidazol-2(3H)-yl)-N-hydroxy-2-methyl-2-(methylsulfonyl)butanamide]	4 (≈ 8.63 µM)	8 (≈ 17.3 µM)	8 (≈ 17.3 µM)	–
C[C@@](CCN1Cc2cc(-c3ccc(OC[C@H](O)CO)cc3F)cn2C1=O)(C(=O)NO)S(C)(=O)=O [Example 43, (R)-4-(6-(4-((R)-2,3-dihydroxypropoxy)-2-fluorophenyl)-3-oxo-1H-pyrrolo[1,2-c]imidazol-2(3H)-yl)-N-hydroxy-2-methyl-2-(methylsulfonyl)butanamide]	8 (≈ 16 µM)	8 (≈ 16 µM)	16 (≈ 32 µM)	–
C[C@@](CCN1Cc2cc(C#Cc3ccc(C(F)(F)CO)cc3)cn2C1=O)(C(=O)NO)S(C)(=O)=O [Example 44, (R)-4-(6-((4-(1,1-difluoro-2-hydroxyethyl)phenyl)ethynyl)-3-oxo-1H-pyrrolo[1,2-c]imidazol-2(3H)-yl)-N-hydroxy-2-methyl-2-(methylsulfonyl)butanamide]	1 (≈ 2.02 µM)	≤ 0.063	0.25 (≈ 0.505 µM)	–

Source: patent US10106544B2, “1,2-dihydro-3H-pyrrolo[1,2-C]imidazol-3-one derivatives and their use as antibacterial agents” (priority 2014, dated 2018)
